{"source": "paper PMC5418711", "about": "“Safety and efficacy of the choline analogue SAR97276 for malaria treatment: results of two phase 2, open-label, multicenter trials in African patients” (Malaria Journal, 2017)", "assay": "Study 1: safety assessment (TEAEs, laboratory tests, ECG)", "type": "in vivo, human", "settings": "for QTc interval - change from baseline Borderline: Incr. from B 30-60 ms / QTc interval - change from baseline Prolonged: Incr. from B > 60 ms / QTc interval Prolonged: > 450 ms (m); > 470 ms (f) / QTc interval ≥ 500 ms: TEAE period", "protocol": "Follow-up visits were done on day 6, 8, 14 ± 2, 21 ± 2, 28 ± 2 (Study 1); and day 7, 14 ± 2, 21 ± 2, 28 ± 2 (Study 2). […] Parasitemia was determined microscopically by Giemsa stained thick blood smear by two trained microscopists blinded to each other. […] For Study 2 respiratory parameters (respiratory rate, peak flow, efficiency of cough) were also checked at baseline and 30 min after first dose on day 1, 2 and 3.\nTreatment emergent adverse events (TEAEs) were defined as AEs that developed or worsened during the treatment period until day 6 following the end of study treatment.", "key": {"[1]": {"settings": "Group 1A, one patient, three days after study medication"}, "[2]": {"settings": "Group 1A: 1 day IM 0.18 mg/kg, adults, N=34"}, "[3]": {"settings": "Group 1A: 1 day IM 0.18 mg/kg, adults"}, "[4]": {"settings": "Group 1B: 3 days IM 0.18 mg/kg, adults, N=30"}, "[5]": {"settings": "Group 1B: 3 days IM 0.18 mg/kg, adults"}, "[6]": {"settings": "Group 1C: 1 day IV 0.14 mg/kg, adults, N=30"}, "[7]": {"settings": "Group 1C: 1 day IV 0.14 mg/kg, adults"}, "[8]": {"settings": "Group 1D: 3 days IM 0.18 mg/kg, children, N=19"}, "[9]": {"settings": "Group 1D: 3 days IM 0.18 mg/kg, children"}}}
{"smiles": "Cc1c(CCO)sc[n+]1CCCCCCCCCCCC[n+]1csc(CCO)c1C", "note": "[SAR97276A]", "values": [{"measurement": "ALT increase in the patient with cytolytic hepatitis", "setting": "[1]", "result": "4.5 × upper limit than normal (ULN)"}, {"measurement": "AST increase in the patient with cytolytic hepatitis", "setting": "[1]", "result": 11, "unit": "× ULN"}, {"measurement": "Total bilirubin in the patient with cytolytic hepatitis", "setting": "[1]", "result": "≥ 1.5", "unit": "× ULN"}, {"measurement": "Patients who did not complete study treatment", "setting": "[2]", "result": 0}, {"measurement": "Patients with any TEAE", "setting": "[2]", "result": "18 (52.9%)"}, {"measurement": "TEAE: Arthralgia", "setting": "[2]", "result": "1 (2.9%)"}, {"measurement": "TEAE: Convulsion", "setting": "[2]", "result": 0}, {"measurement": "TEAE: Cough", "setting": "[2]", "result": "2 (5.9%)"}, {"measurement": "TEAE: Cytolytic hepatitis", "setting": "[2]", "result": "1 (2.9%)"}, {"measurement": "TEAE: Dizziness", "setting": "[2]", "result": "1 (2.9%)"}, {"measurement": "TEAE: Eyelid pruritus", "setting": "[2]", "result": 0}, {"measurement": "TEAE: Gastrointestinal disorders", "setting": "[2]", "result": "3 (8.8%)"}, {"measurement": "TEAE: General Disorders/Administration site disorders", "setting": "[2]", "result": "3 (8.8%)"}, {"measurement": "TEAE: Headache", "setting": "[2]", "result": "4 (11.8%)"}, {"measurement": "TEAE: Hypertension", "setting": "[2]", "result": 0}, {"measurement": "TEAE: Malaria", "setting": "[2]", "result": "2 (5.9%)"}, {"measurement": "TEAE: Neck pain", "setting": "[2]", "result": "2 (5.9%)"}, {"measurement": "TEAE: Paraesthesia", "setting": "[2]", "result": 0}, {"measurement": "TEAE: Pneumonia", "setting": "[2]", "result": "1 (2.9%)"}, {"measurement": "TEAE: Pruritus", "setting": "[2]", "result": 0}, {"measurement": "TEAE: Rhinitis", "setting": "[2]", "result": "2 (5.9%)"}, {"measurement": "TEAE: Thrombocytopenia", "setting": "[2]", "result": 0}, {"measurement": "TEAE: Urticaria", "setting": "[2]", "result": "1 (2.9%)"}, {"measurement": "TEAE: Vertigo", "setting": "[2]", "result": "2 (5.9%)"}, {"measurement": "QTc interval - change from baseline Borderline: Incr. from B 30-60 ms", "setting": "[3]", "result": "0/33"}, {"measurement": "QTc interval - change from baseline Prolonged: Incr. from B > 60 ms", "setting": "[3]", "result": "0/33"}, {"measurement": "QTc interval Prolonged: > 450 ms (m); > 470 ms (f)", "setting": "[3]", "result": "0/33"}, {"measurement": "QTc interval ≥ 500 ms", "setting": "[3]", "result": "0/33"}, {"measurement": "Further patients with an elevated AST (> 3 x ULN), apart from the SAE patient", "setting": "Group 1A: adults, single IM dose", "result": "one"}, {"measurement": "Patients who did not complete study treatment", "setting": "[4]", "result": 0}, {"measurement": "Patients with any TEAE", "setting": "[4]", "result": "18 (60%)"}, {"measurement": "Patients with any serious AE", "setting": "[4]", "result": 0}, {"measurement": "TEAE: Bradycardia", "setting": "[4]", "result": 0}, {"measurement": "TEAE: Convulsion", "setting": "[4]", "result": 0}, {"measurement": "TEAE: Cough", "setting": "[4]", "result": "2 (6.7%)"}, {"measurement": "TEAE: Cytolytic hepatitis", "setting": "[4]", "result": 0}, {"measurement": "TEAE: Dizziness", "setting": "[4]", "result": "1 (3.3%)"}, {"measurement": "TEAE: Eyelid pruritus", "setting": "[4]", "result": 0}, {"measurement": "TEAE: Gastrointestinal disorders", "setting": "[4]", "result": "7 (23.3%)"}, {"measurement": "TEAE: General Disorders/Administration site disorders", "setting": "[4]", "result": "1 (3.3%)"}, {"measurement": "TEAE: Headache", "setting": "[4]", "result": "4 (13.3%)"}, {"measurement": "TEAE: Hypertension", "setting": "[4]", "result": "1 (3.3%)"}, {"measurement": "TEAE: Malaria", "setting": "[4]", "result": 0}, {"measurement": "TEAE: Neck pain", "setting": "[4]", "result": "1 (3.3%)"}, {"measurement": "TEAE: Paraesthesia", "setting": "[4]", "result": "1 (3.3%)"}, {"measurement": "TEAE: Pneumonia", "setting": "[4]", "result": 0}, {"measurement": "TEAE: Pruritus", "setting": "[4]", "result": "1 (3.3%)"}, {"measurement": "TEAE: Rhinitis", "setting": "[4]", "result": 0}, {"measurement": "TEAE: Tachycardia", "setting": "[4]", "result": "1 (3.3%)"}, {"measurement": "TEAE: Thrombocytopenia", "setting": "[4]", "result": 0}, {"measurement": "TEAE: Urticaria", "setting": "[4]", "result": 0}, {"measurement": "TEAE: Vertigo", "setting": "[4]", "result": "2 (6.7%)"}, {"measurement": "QTc interval - change from baseline Borderline: Incr. from B 30-60 ms", "setting": "[5]", "result": "0/30"}, {"measurement": "QTc interval - change from baseline Prolonged: Incr. from B > 60 ms", "setting": "[5]", "result": "0/30"}, {"measurement": "QTc interval Prolonged: > 450 ms (m); > 470 ms (f)", "setting": "[5]", "result": "0/30"}, {"measurement": "QTc interval ≥ 500 ms", "setting": "[5]", "result": "0/30"}, {"measurement": "Patients who did not complete study treatment", "setting": "[6]", "result": 0}, {"measurement": "Patients with any TEAE", "setting": "[6]", "result": "14 (46.7%)"}, {"measurement": "Patients with any serious AE", "setting": "[6]", "result": 0}, {"measurement": "TEAE: Arthralgia", "setting": "[6]", "result": "1 (3.3%)"}, {"measurement": "TEAE: Bradycardia", "setting": "[6]", "result": 0}, {"measurement": "TEAE: Convulsion", "setting": "[6]", "result": 0}, {"measurement": "TEAE: Cough", "setting": "[6]", "result": "1 (3.3%)"}, {"measurement": "TEAE: Cytolytic hepatitis", "setting": "[6]", "result": 0}, {"measurement": "TEAE: Dizziness", "setting": "[6]", "result": "2 (6.7%)"}, {"measurement": "TEAE: Eyelid pruritus", "setting": "[6]", "result": 0}, {"measurement": "TEAE: Gastrointestinal disorders", "setting": "[6]", "result": "1 (3.3%)"}, {"measurement": "TEAE: General Disorders/Administration site disorders", "setting": "[6]", "result": 0}, {"measurement": "TEAE: Headache", "setting": "[6]", "result": "3 (10%)"}, {"measurement": "TEAE: Hypertension", "setting": "[6]", "result": 0}, {"measurement": "TEAE: Malaria", "setting": "[6]", "result": 0}, {"measurement": "TEAE: Neck pain", "setting": "[6]", "result": 0}, {"measurement": "TEAE: Paraesthesia", "setting": "[6]", "result": 0}, {"measurement": "TEAE: Pneumonia", "setting": "[6]", "result": 0}, {"measurement": "TEAE: Pruritus", "setting": "[6]", "result": 0}, {"measurement": "TEAE: Rhinitis", "setting": "[6]", "result": 0}, {"measurement": "TEAE: Tachycardia", "setting": "[6]", "result": 0}, {"measurement": "TEAE: Thrombocytopenia", "setting": "[6]", "result": 0}, {"measurement": "TEAE: Urticaria", "setting": "[6]", "result": 0}, {"measurement": "TEAE: Vertigo", "setting": "[6]", "result": 0}, {"measurement": "QTc interval - change from baseline Prolonged: Incr. from B > 60 ms", "setting": "[7]", "result": "0/30"}, {"measurement": "QTc interval Prolonged: > 450 ms (m); > 470 ms (f)", "setting": "[7]", "result": "0/30"}, {"measurement": "QTc interval ≥ 500 ms", "setting": "[7]", "result": "0/30"}, {"measurement": "Patients with any TEAE", "setting": "[8]", "result": "11 (57.9%)"}, {"measurement": "TEAE: Arthralgia", "setting": "[8]", "result": 0}, {"measurement": "TEAE: Bradycardia", "setting": "[8]", "result": 0}, {"measurement": "TEAE: Convulsion", "setting": "[8]", "result": "1 (5.3%)"}, {"measurement": "TEAE: Cough", "setting": "[8]", "result": "1 (5.3%)"}, {"measurement": "TEAE: Cytolytic hepatitis", "setting": "[8]", "result": 0}, {"measurement": "TEAE: Dizziness", "setting": "[8]", "result": 0}, {"measurement": "TEAE: Eyelid pruritus", "setting": "[8]", "result": "1 (5.3%)"}, {"measurement": "TEAE: Gastrointestinal disorders", "setting": "[8]", "result": "5 (26.3%)"}, {"measurement": "TEAE: General Disorders/Administration site disorders", "setting": "[8]", "result": "1 (5.3%)"}, {"measurement": "TEAE: Headache", "setting": "[8]", "result": "3 (15.8%)"}, {"measurement": "TEAE: Hypertension", "setting": "[8]", "result": 0}, {"measurement": "TEAE: Malaria", "setting": "[8]", "result": 0}, {"measurement": "TEAE: Neck pain", "setting": "[8]", "result": 0}, {"measurement": "TEAE: Paraesthesia", "setting": "[8]", "result": 0}, {"measurement": "TEAE: Pneumonia", "setting": "[8]", "result": 0}, {"measurement": "TEAE: Pruritus", "setting": "[8]", "result": 0}, {"measurement": "TEAE: Rhinitis", "setting": "[8]", "result": 0}, {"measurement": "TEAE: Tachycardia", "setting": "[8]", "result": 0}, {"measurement": "TEAE: Urticaria", "setting": "[8]", "result": 0}, {"measurement": "TEAE: Vertigo", "setting": "[8]", "result": 0}, {"measurement": "QTc interval - change from baseline Borderline: Incr. from B 30-60 ms", "setting": "[9]", "result": "0/18"}, {"measurement": "QTc interval - change from baseline Prolonged: Incr. from B > 60 ms", "setting": "[9]", "result": "0/18"}, {"measurement": "QTc interval Prolonged: > 450 ms (m); > 470 ms (f)", "setting": "[9]", "result": "0/18"}, {"measurement": "QTc interval ≥ 500 ms", "setting": "[9]", "result": "0/18"}, {"measurement": "Deaths", "setting": "Study 1", "result": "No deaths"}, {"measurement": "ECG abnormalities, clinical significance", "setting": "Study 1", "result": "No clinical significant abnormalities"}, {"measurement": "Ophthalmologic disorders possibly related to SAR97276A", "setting": "Study 1", "result": "No ophthalmologic disorders"}, {"measurement": "Participants with alkaline phosphatase elevated (> 1.5 x ULN)", "setting": "Study 1", "result": 19}, {"measurement": "SAEs regarded as related to SAR97276A by the investigators", "setting": "Study 1", "result": "None"}, {"measurement": "Tolerability", "setting": "Study 1", "result": "well tolerated"}, {"measurement": "Patients with a serious adverse event (SAE), total", "setting": "Study 1, all groups", "result": "four"}, {"measurement": "Patients who experienced a TEAE, all cohorts", "setting": "Study 1, out of 113 patients", "result": "61 (54%)"}]}
